Results reported in PubChem BioAssay (NCI).
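96-well plates; 48 h exposure; 5 concentrations. Endpoints by linear interpolation between flanking doses. Not reached: highest tested concentration assigned. At the GI50, growth is halved. TGI: total growth inhibition.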

Each molecule was assayed on MDA-MB-468 breast (assay: DTP human tumour cell line panel, 48 h).

Compared with COC(=O)Nc1nc2ccc(Oc3ccc(NC(=O)Nc4cccc(C(=O)O)c4)cc3)cc2[nH]1, COc1ccc(N(CC(=O)NCCC[Te]c2ccccc2)C(=O)c2ccccc2)cc1 is 4.2-fold higher in GI50: 0.998 µM for the first, 4.24 µM for the second.

Compared with O=C1NN(c2ccc(C(=O)O)cc2)C(=O)/C1=C\c1ccc([N+](=O)[O-])o1, Cn1cc(C2=C(c3cccc4ccccc34)C(=O)NC2=O)c2ccccc21 is 2.7-fold lower in GI50: 22.5 µM for the first, 8.24 µM for the second.

Compared with CC1(C)CC[C@]23CC[C@]4(C)[C@H](CC[C@@H]5[C@@]6(C)CCCN(CO)C(C)(C)[C@@H]6CC[C@]54C)[C@H]2[C@H]1OC3, C/C=C(\C)C(=O)N[C@H]1CC[C@]2(C)C3CC[C@@]4(C)C(CC[C@@H]4C(C)N(C)C)C3CCC2[C@H]1OC(C)=O (stereo partly specified) is 1.5-fold lower in GI50: 1.81 µM for the first, 1.17 µM for the second.

Compared with N#C/C(=C\c1ccc(-c2ccc(Cl)cc2)o1)C(=O)Nc1ncc(Cc2ccc(Cl)cc2)s1, Cn1ccnc1C(=O)/C=C/c1ccc(C(=O)Nc2ccc(Cl)cc2)cc1 is 3-fold lower in GI50: 2.38 µM for the first, 0.793 µM for the second.

Compared with CC[C@@H](C(=O)[C@@H](C)[C@@H](O)[C@H](C)[C@@H]1O[C@@H]([C@@H](CC)C(=O)O)CC[C@@H]1C)C1O[C@]2(C=CC(=O)[C@]3(CC[C@@](C)([C@H]4CC[C@](O)(CC)[C@H](C)O4)O3)O2)[C@H](C)C[C@@H]1C (stereo partly specified), CC[C@H](C)[C@H]1NC(=O)[C@@H](N[C@](C)(O)[C@@H](N)CC(C)C)[C@@H](C)OC(=O)[C@H](Cc2ccc(OC)cc2)N(C)C(=O)[C@@H]2CCCN2C(=O)[C@H](CC(C)C)NC(=O)[C@@H](C)C(=O)[C@H](C(C)C)OC(=O)C[C@@H]1O is 3.9-fold lower in GI50: 0.0857 µM for the first, 0.0217 µM for the second.

Cc1cc(N2CCCCC2)nc(N(CCCNc2ccnc3cc(Cl)ccc23)Cc2ccco2)n1 and CCCN(CCC)C(=O)C1=Cc2ccc(-c3ccc(C(=O)N4CCCC4)cc3)cc2N=C(N)C1 are within 1.5-fold of each other in GI50: 1.72 µM for the first, 2.56 µM for the second.

Going from COc1ccc2nc(-c3cc(-c4cc(OC)c(OC)c(OC)c4)n[nH]3)[nH]c2c1 to COc1cc(-c2nc(Nc3nc4ccccc4[nH]3)nc(N)c2C#N)cc(OC)c1OC, the GI50 rises from 0.388 µM to 1.39 µM (3.6-fold).

CCN(CC)CCCC(C)Nc1cnc(C(=O)Nc2ccc(Cl)c3cccnc23)cn1 (stereo unspecified) and O=c1c2cccc(Cl)c2sc2c(NCCCNCCO)nc3ccccc3c12 are within 1.5-fold of each other in GI50: 1.57 µM for the first, 1.19 µM for the second.

Going from Cn1nccc1Nc1nccc(-c2cc3c(s2)C(C)(C)N(CCN2CCOCC2)C3=O)n1 to COc1cc2nc(-c3cnc(N(C)C)nc3)nc(NC3CCN(Cc4ccccc4)CC3)c2cc1OC, the GI50 falls from 6.1 µM to 1.38 µM (4.4-fold).

First: Oc1ccc2cc(Br)ccc2c1-c1c(O)ccc2cc(Br)ccc12
Second: CN(C)c1ccc(N2Cc3ccccc3OC3=C2C(=O)c2c(O)ccc(O)c2C3=O)cn1
The GI50 of the first is 21-fold higher: 3.62 µM for the first, 0.169 µM for the second.

Going from Cc1nn(-c2nc3ccccc3s2)c(C)c1Oc1ccccc1O to c1ccc(Cn2cc3c(c2-c2ccccc2)CCc2cnoc2-3)cc1, the GI50 rises from 1.13 µM to 2.06 µM (1.8-fold).

First: COc1cccc(C2c3cc4c(cc3OC(C)(O)C2C)OCO4)c1O (stereo unspecified)
Second: COc1cc(C(=O)c2ccc3c(c2)OCO3)cc(OC)c1OC
The GI50 of the first is 8.2-fold higher: 4.83 µM for the first, 0.586 µM for the second.

O=c1cc(-c2ccccc2)[nH]c2cc(F)c(F)cc12 and COc1ccc(-c2[nH]c3ccccc3c2C=C(C#N)C#N)cc1 are within 1.5-fold of each other in GI50: 0.384 µM for the first, 0.557 µM for the second.

Compared with C[C@@H]1CN(C(=O)c2ccc(NC(=O)c3cc(O[C@H](C)c4c(Cl)ccc(F)c4Cl)c(N)nn3)cc2)C[C@H](C)N1, COc1cc(NS(C)(=O)=O)ccc1Nc1c2ccc(Cl)cc2nc2c(OC)cccc12 is 18-fold lower in GI50: 2.51 µM for the first, 0.136 µM for the second.

Going from COc1ccccc1OCC(=O)Nc1sc2c(c1C(N)=O)CCC2 to COc1ccc2c(c1)C(=O)/C(=C/c1cccc(OCC(=O)Nc3nc4c(s3)CCCC4)c1)O2, the GI50 falls from over 100 µM to 0.188 µM.

Compared with CCOc1c(Br)cc(C2C(C(=O)OC)=CN(C)C=C2C(=O)OC)cc1OC, CCOc1cccc(/C=N/NC(=O)c2ccc(Nc3ccnc(C(F)(F)F)c3)cc2)c1O is 110-fold lower in GI50: 37.7 µM for the first, 0.349 µM for the second.

First: O=C1CC(c2ccc(N3CCOCC3)cc2)(c2ccsc2)NC(=O)C1Sc1ccccc1Cl (stereo unspecified)
Second: Cn1cncc1[C@@](N)(c1ccc(Cl)cc1)c1ccc2c(c1)c(-c1cccc(Cl)c1)cc(=O)n2C
The GI50 of the first is 51-fold higher: 86.7 µM for the first, 1.69 µM for the second.

Compared with CC(C)(C)NC(C1=CC(C)(C)c2ccccc2C1=O)c1ccccc1 (stereo unspecified), C1=Cc2ccccc2Nc2ccccc21 is 18-fold higher in GI50: 0.245 µM for the first, 4.36 µM for the second.

CCC(C)(C)C(=O)O[C@H]1C[C@@H](C)C=C2C=C[C@H](C)[C@H](CC[C@@H]3C[C@@H](O)CC(=O)O3)[C@H]21 and C=C1C(=O)O[C@H]2[C@H]1CC/C(COC(=O)CCCCC(=O)OC/C1=C/CC[C@@]3(C)O[C@H]3[C@H]3OC(=O)C(=C)[C@@H]3CC1)=C\CC[C@@]1(C)O[C@@H]21 are within 1.5-fold of each other in GI50: 1.62 µM for the first, 1.66 µM for the second.

O=[N+]([O-])c1ccc(Br)c([N+](=O)[O-])c1 and CC1=CC(=NC(=O)CBr)C=C/C1=N\S(=O)(=O)c1ccccc1 are within 1.5-fold of each other in GI50: 1.67 µM for the first, 2.41 µM for the second.

Going from CC1=C[C@H]2c3c(c(O)c(O)c4oc5c(C)cccc5c(=O)c34)[C@H](c3cc(O)c(O)c4oc5c(C)cccc5c(=O)c34)[C@H]2C(C)(C)C1 to Cn1cc(-c2nc(-c3c[nH]c4ncccc34)cs2)c2cc(F)ccc21, the GI50 falls from 2.62 µM to 0.069 µM (38-fold).

Work on C[n+]1c(/C=C\c2ccc(Cl)cc2)ccc2ccccc21 yielded a GI50 of 2.36 µM.

COC(=O)Nc1nc2ccc(Oc3ccc(NC(=O)Nc4cccc(C(=O)O)c4)cc3)cc2[nH]1 and COc1ccc(N(CC(=O)NCCC[Te]c2ccccc2)C(=O)c2ccccc2)cc1 are within 1.5-fold of each other in TGI: 12.8 µM for the first, 17.6 µM for the second.

O=C1NN(c2ccc(C(=O)O)cc2)C(=O)/C1=C\c1ccc([N+](=O)[O-])o1 and Cn1cc(C2=C(c3cccc4ccccc34)C(=O)NC2=O)c2ccccc21 cannot be ordered by TGI: 57.4 µM for the first, over 25 µM for the second.

Compared with CC1(C)CC[C@]23CC[C@]4(C)[C@H](CC[C@@H]5[C@@]6(C)CCCN(CO)C(C)(C)[C@@H]6CC[C@]54C)[C@H]2[C@H]1OC3, C/C=C(\C)C(=O)N[C@H]1CC[C@]2(C)C3CC[C@@]4(C)C(CC[C@@H]4C(C)N(C)C)C3CCC2[C@H]1OC(C)=O (stereo partly specified) is 1.6-fold lower in TGI: 4.18 µM for the first, 2.63 µM for the second.

Going from N#C/C(=C\c1ccc(-c2ccc(Cl)cc2)o1)C(=O)Nc1ncc(Cc2ccc(Cl)cc2)s1 to Cn1ccnc1C(=O)/C=C/c1ccc(C(=O)Nc2ccc(Cl)cc2)cc1, the TGI falls from 6.49 µM to 2.8 µM (2.3-fold).

Going from CC[C@@H](C(=O)[C@@H](C)[C@@H](O)[C@H](C)[C@@H]1O[C@@H]([C@@H](CC)C(=O)O)CC[C@@H]1C)C1O[C@]2(C=CC(=O)[C@]3(CC[C@@](C)([C@H]4CC[C@](O)(CC)[C@H](C)O4)O3)O2)[C@H](C)C[C@@H]1C (stereo partly specified) to CC[C@H](C)[C@H]1NC(=O)[C@@H](N[C@](C)(O)[C@@H](N)CC(C)C)[C@@H](C)OC(=O)[C@H](Cc2ccc(OC)cc2)N(C)C(=O)[C@@H]2CCCN2C(=O)[C@H](CC(C)C)NC(=O)[C@@H](C)C(=O)[C@H](C(C)C)OC(=O)C[C@@H]1O, the TGI falls from 1.96 µM to 0.261 µM (7.5-fold).

Compared with Cc1cc(N2CCCCC2)nc(N(CCCNc2ccnc3cc(Cl)ccc23)Cc2ccco2)n1, CCCN(CCC)C(=O)C1=Cc2ccc(-c3ccc(C(=O)N4CCCC4)cc3)cc2N=C(N)C1 is 3-fold higher in TGI: 3.87 µM for the first, 11.8 µM for the second.

Compared with COc1ccc2nc(-c3cc(-c4cc(OC)c(OC)c(OC)c4)n[nH]3)[nH]c2c1, COc1cc(-c2nc(Nc3nc4ccccc4[nH]3)nc(N)c2C#N)cc(OC)c1OC is 5.4-fold higher in TGI: 4.96 µM for the first, 26.6 µM for the second.

CCN(CC)CCCC(C)Nc1cnc(C(=O)Nc2ccc(Cl)c3cccnc23)cn1 (stereo unspecified) and O=c1c2cccc(Cl)c2sc2c(NCCCNCCO)nc3ccccc3c12 are within 1.5-fold of each other in TGI: 3.49 µM for the first, 2.98 µM for the second.

Compared with Cn1nccc1Nc1nccc(-c2cc3c(s2)C(C)(C)N(CCN2CCOCC2)C3=O)n1, COc1cc2nc(-c3cnc(N(C)C)nc3)nc(NC3CCN(Cc4ccccc4)CC3)c2cc1OC is lower in TGI: over 83.5 µM for the first, 2.96 µM for the second.

First: Oc1ccc2cc(Br)ccc2c1-c1c(O)ccc2cc(Br)ccc12
Second: CN(C)c1ccc(N2Cc3ccccc3OC3=C2C(=O)c2c(O)ccc(O)c2C3=O)cn1
The TGI of the first is 28-fold higher: 11.7 µM for the first, 0.425 µM for the second.

First: Cc1nn(-c2nc3ccccc3s2)c(C)c1Oc1ccccc1O
Second: c1ccc(Cn2cc3c(c2-c2ccccc2)CCc2cnoc2-3)cc1
The TGI of the first is 3.4-fold higher: 27.4 µM for the first, 8.02 µM for the second.

Compared with COc1cccc(C2c3cc4c(cc3OC(C)(O)C2C)OCO4)c1O (stereo unspecified), COc1cc(C(=O)c2ccc3c(c2)OCO3)cc(OC)c1OC is 17-fold lower in TGI: 56.6 µM for the first, 3.32 µM for the second.

O=c1cc(-c2ccccc2)[nH]c2cc(F)c(F)cc12 and COc1ccc(-c2[nH]c3ccccc3c2C=C(C#N)C#N)cc1 cannot be ordered by TGI: over 100 µM for the first, over 100 µM for the second.

First: C[C@@H]1CN(C(=O)c2ccc(NC(=O)c3cc(O[C@H](C)c4c(Cl)ccc(F)c4Cl)c(N)nn3)cc2)C[C@H](C)N1
Second: COc1cc(NS(C)(=O)=O)ccc1Nc1c2ccc(Cl)cc2nc2c(OC)cccc12
The TGI of the first is 20-fold higher: 9.87 µM for the first, 0.484 µM for the second.

Going from COc1ccccc1OCC(=O)Nc1sc2c(c1C(N)=O)CCC2 to COc1ccc2c(c1)C(=O)/C(=C/c1cccc(OCC(=O)Nc3nc4c(s3)CCCC4)c1)O2, the TGI falls from over 100 µM to 0.353 µM.

Compared with CCOc1c(Br)cc(C2C(C(=O)OC)=CN(C)C=C2C(=O)OC)cc1OC, CCOc1cccc(/C=N/NC(=O)c2ccc(Nc3ccnc(C(F)(F)F)c3)cc2)c1O is lower in TGI: over 100 µM for the first, 2.96 µM for the second.

Going from O=C1CC(c2ccc(N3CCOCC3)cc2)(c2ccsc2)NC(=O)C1Sc1ccccc1Cl (stereo unspecified) to Cn1cncc1[C@@](N)(c1ccc(Cl)cc1)c1ccc2c(c1)c(-c1cccc(Cl)c1)cc(=O)n2C, the TGI falls from over 100 µM to 6.76 µM.

First: CC(C)(C)NC(C1=CC(C)(C)c2ccccc2C1=O)c1ccccc1 (stereo unspecified)
Second: C1=Cc2ccccc2Nc2ccccc21
The TGI of the first is 20-fold lower: 1.66 µM for the first, 33.7 µM for the second.

CCC(C)(C)C(=O)O[C@H]1C[C@@H](C)C=C2C=C[C@H](C)[C@H](CC[C@@H]3C[C@@H](O)CC(=O)O3)[C@H]21 and C=C1C(=O)O[C@H]2[C@H]1CC/C(COC(=O)CCCCC(=O)OC/C1=C/CC[C@@]3(C)O[C@H]3[C@H]3OC(=O)C(=C)[C@@H]3CC1)=C\CC[C@@]1(C)O[C@@H]21 are within 1.5-fold of each other in TGI: 6.68 µM for the first, 5.11 µM for the second.

First: O=[N+]([O-])c1ccc(Br)c([N+](=O)[O-])c1
Second: CC1=CC(=NC(=O)CBr)C=C/C1=N\S(=O)(=O)c1ccccc1
The TGI of the first is 2.4-fold lower: 3.27 µM for the first, 8.01 µM for the second.

First: CC1=C[C@H]2c3c(c(O)c(O)c4oc5c(C)cccc5c(=O)c34)[C@H](c3cc(O)c(O)c4oc5c(C)cccc5c(=O)c34)[C@H]2C(C)(C)C1
Second: Cn1cc(-c2nc(-c3c[nH]c4ncccc34)cs2)c2cc(F)ccc21
The TGI of the first is 11-fold higher: 7.86 µM for the first, 0.725 µM for the second.

Molecule C[n+]1c(/C=C\c2ccc(Cl)cc2)ccc2ccccc21 has a TGI of 8.37 µM.
